Measured values as given in ChEMBL document CHEMBL1949560, “Plasmodium berghei proteome changes in response to SSJ-183 treatment” (2011).
Calls of active or inactive are those of the source. The calls are words filed in the database; no cut-off is given here.

Assays:
Mus musculus [1] = test: Up regulation of unnamed protein product (gi74220592) in ICR mouse infected with Plasmodium berghei NK-65 at 50 mg/kg, po administered 4 days post-infection measured after 18 hrs in host blood by 2D-gel electrophoresis; assay type: functional, organism-based; parameters: dose 50 mg/kg
Plasmodium berghei [2] = test: Down regulation of hypothetical protein (gi68067763) in Plasmodium berghei NK-65 infected in ICR mouse at 50 mg/kg, po administered 4 days post-infection measured after 18 hrs in the host blood by 2D-gel electrophoresis; assay type: functional, organism-based; parameters: dose 50 mg/kg
Plasmodium berghei [3] = test: Antimalarial activity against Plasmodium berghei NK-65 infected in ICR mouse assessed as parasitemia at 50 mg/kg, po administered 4 days post-infection measured after 18 hrs (reference value: 30 to 40%); assay type: functional
Plasmodium berghei [4] = test: Down regulation of […] precursor in Plasmodium berghei NK-65 infected in ICR mouse at 50 mg/kg, po administered 4 days post-infection measured after 18 hrs in the host blood by 2D-gel electrophoresis; assay type: functional, organism-based; parameters: dose 50 mg/kg
Plasmodium berghei [5] = test: Down regulation of berghepain-2 in Plasmodium berghei NK-65 infected in ICR mouse at 50 mg/kg, po administered 4 days post-infection measured after 18 hrs in the host blood by 2D-gel electrophoresis; assay type: functional, organism-based; parameters: dose 50 mg/kg
Mus musculus [6] = test: Up regulation of unnamed protein product (gi74005074) in ICR mouse infected with Plasmodium berghei NK-65 at 50 mg/kg, po administered 4 days post-infection measured after 18 hrs in host blood by 2D-gel electrophoresis; assay type: functional, organism-based; parameters: dose 50 mg/kg
Plasmodium berghei [7] = test: Down regulation of heat shock protein (gi68071723) in Plasmodium berghei NK-65 infected in ICR mouse at 50 mg/kg, po administered 4 days post-infection measured after 18 hrs in the host blood by 2D-gel electrophoresis; assay type: functional, organism-based; parameters: dose 50 mg/kg
Plasmodium berghei [8] = test: Down regulation of hypothetical protein (gi68064486) in Plasmodium berghei NK-65 infected in ICR mouse at 50 mg/kg, po administered 4 days post-infection measured after 18 hrs in the host blood by 2D-gel electrophoresis; assay type: functional, organism-based; parameters: dose 50 mg/kg
Mus musculus [9] = test: Down regulation of beta-actin in ICR mouse infected with Plasmodium berghei NK-65 at 50 mg/kg, po administered 4 days post-infection measured after 18 hrs in host blood by 2D-gel electrophoresis; assay type: functional, organism-based; parameters: dose 50 mg/kg

Structure (SMILES): CCN(CC)c1ccc2nc3c4ccccc4/c(=N/c4ccncc4)cc-3oc2c1.Cl
- Activity (Mus musculus [1]): Active
- Activity (Plasmodium berghei [2]): Active
- Activity (Plasmodium berghei [3]): 20%
- Activity (Plasmodium berghei [4]): Active
- Activity (Plasmodium berghei [5]): Active
- Activity (Mus musculus [6]): Active
- Activity (Plasmodium berghei [7]): Active
- Activity (Plasmodium berghei [8]): Active
- Activity (Mus musculus [9]): Active
